These results are taken from PubChem BioAssay (NCI).

SMILES strings stand for the structures.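 How tested: cells in 96-well plates exposed to compound for 48 hours at five concentrations. GI50 marks 50% less growth. TGI: concentration producing complete growth inhibition.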 Some results are limits rather than exact numbers.

Among the test systems are CAKI-1 renal; HCT-116 colon; LOX IMVI melanoma; NCI-H226 lung; NCI-H460 lung; OVCAR-4 ovarian; SK-MEL-2 melanoma; SNB-19 CNS; SW-620 colon; UACC-257 melanoma.
What all share (experiment): NCI-60 cell line screen, 48 h

Turning to `C[C@H](c1ccccc1)N(CCC(=O)O)C(=O)CCN(C(=O)CCN(C(=O)CCN[C@H](C)c1ccccc1)[C@H](C)c1ccccc1)[C@H](C)c1ccccc1`, the GI50 in the experiment on CAKI-1 renal, in the experiment with HCT-116 colon, in the experiment with LOX IMVI melanoma, in the experiment with NCI-H226 lung, with NCI-H460 lung and in the experiment with OVCAR-4 ovarian was over 100000 nM throughout. Moreover, the GI50 in the experiment with SK-MEL-2 melanoma is over 100 µM; in the experiment with SNB-19 CNS it was over 100000 nM; with SW-620 colon it was over 100 µM; with UACC-257 melanoma, over 100000 nM. For the same compound, the TGI in the experiment on CAKI-1 renal, in the experiment with HCT-116 colon, in the experiment on LOX IMVI melanoma, in the experiment with NCI-H226 lung, in the experiment on NCI-H460 lung and in the experiment on OVCAR-4 ovarian was over 100 µM throughout. Besides, the TGI with SK-MEL-2 melanoma, in the experiment with SNB-19 CNS, in the experiment with SW-620 colon and with UACC-257 melanoma was over 100 µM each time.

Take `Cc1ccc(S(=O)(=O)CC2(Br)CCc3ccccc3C2=O)cc1` (stereo not given): the TGI in the experiment with CAKI-1 renal is 53.4 µM; with HCT-116 colon, over 100 µM; in the experiment with LOX IMVI melanoma, over 100 µM; in the experiment with NCI-H226 lung, over 100 µM; in the experiment on NCI-H460 lung, over 100 µM; in the experiment with OVCAR-4 ovarian it was 50 µM. For the same compound, the TGI is 44.9 µM in the experiment with SK-MEL-2 melanoma, over 100 µM with SNB-19 CNS, over 100 µM in the experiment on SW-620 colon and 44.1 µM in the experiment on UACC-257 melanoma.

As to `COc1ccc2nc3cc(Cl)ccc3c(Nc3cc(C(C)C)c(O)cc3C)c2c1`, the GI50 in the experiment with CAKI-1 renal is 2100 nM; in the experiment with HCT-116 colon, 1590 nM; with LOX IMVI melanoma it was 1790 nM; in the experiment with NCI-H226 lung, 2230 nM; with NCI-H460 lung it was 1710 nM; in the experiment on OVCAR-4 ovarian, 2500 nM. The GI50 in the experiment with SK-MEL-2 melanoma was 1.85 µM; with SNB-19 CNS it was 2970 nM; in the experiment on SW-620 colon, 1.77 µM; in the experiment with UACC-257 melanoma, 1350 nM. Besides, the TGI amounted to 5.42 µM with CAKI-1 renal; 2.95 µM in the experiment with HCT-116 colon; 3.3 µM in the experiment with LOX IMVI melanoma; 6.64 µM with NCI-H226 lung; 3.45 µM in the experiment with NCI-H460 lung; 9.46 µM with OVCAR-4 ovarian. Besides, the TGI is 3.75 µM with SK-MEL-2 melanoma, 12.7 µM with SNB-19 CNS, 3.37 µM in the experiment with SW-620 colon and 3.07 µM in the experiment with UACC-257 melanoma.

In the case of `c1cc2c(c(NC3=NCCN3)c1)CCCC2`, the TGI in the experiment with CAKI-1 renal, with HCT-116 colon, in the experiment with LOX IMVI melanoma, in the experiment on NCI-H226 lung, with NCI-H460 lung and in the experiment on OVCAR-4 ovarian was over 100 µM in each case. For the same compound, the TGI with SK-MEL-2 melanoma, with SNB-19 CNS, in the experiment on SW-620 colon and with UACC-257 melanoma was over 100 µM throughout.

Turning to `O=c1c2cc(O)c(O)cc2oc2cc(O)c(C3OC(CO)C(O)C(O)C3O)c(O)c12` (stereo not given), the TGI in the experiment on CAKI-1 renal, in the experiment with HCT-116 colon, in the experiment on LOX IMVI melanoma, in the experiment on NCI-H226 lung, in the experiment on NCI-H460 lung and in the experiment with OVCAR-4 ovarian was over 100 µM throughout. Moreover, the TGI with SK-MEL-2 melanoma, in the experiment on SNB-19 CNS, in the experiment on SW-620 colon and in the experiment with UACC-257 melanoma was over 100 µM in each case.

As to `COC1=CC2CCN3Cc4cc5c(cc4C(C1O)C23)OCC5` (stereo not given), the GI50 is 2490 nM with CAKI-1 renal; 1680 nM in the experiment on HCT-116 colon; 587 nM with LOX IMVI melanoma; 1720 nM in the experiment on NCI-H226 lung; 2100 nM in the experiment with NCI-H460 lung; 1330 nM in the experiment on OVCAR-4 ovarian. The GI50 is 14.4 µM in the experiment with SK-MEL-2 melanoma, 992 nM with SNB-19 CNS, 5.21 µM in the experiment on SW-620 colon and 2090 nM in the experiment with UACC-257 melanoma. Besides, the TGI in the experiment on CAKI-1 renal was 8.36 µM; in the experiment on HCT-116 colon, over 49.4 µM; in the experiment with LOX IMVI melanoma, 3.18 µM; with NCI-H226 lung it was 7.6 µM; in the experiment on NCI-H460 lung it was over 100 µM; in the experiment with OVCAR-4 ovarian, 22.8 µM. For the same compound, the TGI in the experiment with SK-MEL-2 melanoma was over 43 µM; in the experiment with SNB-19 CNS, over 24.5 µM; in the experiment on SW-620 colon it was over 100 µM; in the experiment with UACC-257 melanoma it was 34.6 µM.

As for `COc1cc(NC(=O)c2ccccc2Nc2ccnc(C(F)(F)F)c2)cc(OC)c1OC`, the GI50 in the experiment on CAKI-1 renal was 50400 nM; in the experiment on HCT-116 colon it was 49600 nM; in the experiment with LOX IMVI melanoma, 75600 nM; with NCI-H226 lung, 77700 nM; in the experiment on NCI-H460 lung, 69600 nM; with OVCAR-4 ovarian, 30600 nM. Also, the GI50 in the experiment with SK-MEL-2 melanoma is 51.1 µM; in the experiment with SNB-19 CNS, 77100 nM; in the experiment with SW-620 colon, over 100 µM; with UACC-257 melanoma, 88200 nM. Besides, the TGI in the experiment on CAKI-1 renal, in the experiment with HCT-116 colon, in the experiment with LOX IMVI melanoma, in the experiment on NCI-H226 lung, in the experiment on NCI-H460 lung and with OVCAR-4 ovarian was over 100 µM in each case. Moreover, the TGI in the experiment with SK-MEL-2 melanoma, with SNB-19 CNS, in the experiment with SW-620 colon and in the experiment on UACC-257 melanoma was over 100 µM in each case.
